{"source": "patent US20020091139A1", "about": "(DAMON TODD HOLDINGS, L.L.C., priority 1997, published 2002)", "key": {"[1]": {"system": "severe symptomatic non-steroid dependent and steroid-dependent asthmatics", "assay": "Open label 28-week trial of HCQ in severe asthma", "format": "in vivo, human", "conditions": "for mean IgE level: ten patients", "description": "Annals of Allergy 1992;68(1):80 (abstract #40). The initial trial involved four severe symptomatic non-steroid dependent and seven steroid-dependent asthmatics in an open label 28-week trial at doses of 300-400 mg/d. Evaluation measures included daily symptom diary scores of six symptoms, subjective global evaluation, spirometric flow studies, and cumulative monthly steroid dosages."}, "[2]": {"system": "steroid-dependent asthmatics (SDA) and non-steroid-dependent asthmatics (NSDA)", "assay": "Follow-up observations of asthmatics treated long-term with HCQ (SDA and NSDA groups)", "format": "in vivo, human", "description": "Follow-up observations carried out over the last four years among patients treated with HCQ continue to encourage further research. In Table I and II, data concerning the course of 23 steroid-dependent asthmatics (SDA) who have been followed for at least six months on therapy is presented. Spirometric data from these patients is summarized on page 2 of Table I. In the summary, two data groups are reported: the first includes all data points generated and compares each time point with t=0; the second is restricted to the 17 patients for whom data is complete at all time points. The findings are similar for both groups: both FVC and FEV-1 increase both a significant amount (about 10%) and to a degree that is statistically significant as well (using Wilcoxon Signed-Rank probability testing). These increases occurred despite a taper in prednisone outlined in Table I and detailed in Table II. Average daily oral steroid dosage was reduced by 60%, while objective spirometric flow measures and general health improved markedly.\nChanges in severity of asthma in non-steroid-dependent asthmatics (NSDA) are depicted in Table III. In Table III, spirometric flow data is presented. […] Probability testing (Wilcoxon Signed-Rank) in this group achieves significant change from baseline measures by month six and continued improvement is noted throughout the time of treatment.\n2] […] In neither the NSDA group (Table I) nor in the SDA group (Table II) did spirometric flows (as measured by FEV-1) improve to a statistically significant degree at three months. […] In Table IV, data regarding the frequency of rescue-intervention in the NSDA group is reviewed. […] The course of patient, presented in Table V is illustrative of the reproducibility of the delay in onset of action seen in severe asthmatics. This patient was started on HCQ due to very labile asthma requiring frequent ER visits and oral steroid bursts (see Table VI). On HCQ they did better, but became pregnant (against medical advice) and the drug was discontinued. Subsequently, they did quite poorly necessitating restart of alternate-day oral steroids which were maintained during the latter part of their pregnancy. HCQ was restarted at their request following delivery. Again, no clear effect in the person was noted after three months, but after seven months substantial improvement was noted despite appreciable reduction in the dose of their alternate-daily oral steroids.\nIn patients with normal IgE levels, changes were not significant either in amount (19%) nor by statistical criteria. Significant declines in IgE were virtually completely confined to that segment of the patients who entered treatment with elevated IgE levels. […] These clinical observations are supported by in vitro studies carried out recently by Seggev and co-workers. […] J Immunol 1993;150(8):62A."}, "symptomatic asthmatics": {"system": "symptomatic asthmatics", "assay": "Double blind placebo-controlled 30-week trial of HCQ in moderate symptomatic asthma", "format": "in vivo, human", "description": "Symptomatic asthmatics (mean duration>11 years) on stable doses of at least 6 puffs of inhaled steroid per day and p.r.n. bronchodilator (BD) were studied. […] Changes from baseline mean FEV-1 comprised the primary efficacy variable. Other objective variables included daily peak flows, BD usage and setum IgE level; symptom scores and physician global (safety and tolerance) assessments were also obtained. Subjective efficacy variables (rated from 0-3) include breathing restrictions (wheezing, coughing, chest tightness and/or breathlessness), revived need for BD at 6 hours, and nocturnal asthma."}, "human lung": {"system": "human lung", "conditions": "ex vivo human lung; cited from earlier work"}, "[3]": {"system": "T-cells and monocytes; human macrophages", "conditions": "cited from earlier work"}, "[4]": {"system": "neutrophil superoxide production", "conditions": "also in peripheral blood monocytes; cited from earlier work"}, "platelet aggregation": {"system": "platelet aggregation", "conditions": "cited from earlier work"}, "HIV virus": {"system": "HIV virus", "conditions": "T cells and monocytes; cited from earlier work"}, "influenza and adenovirus": {"system": "influenza and adenovirus", "conditions": "personal communication; cited from earlier work"}, "[5]": {"conditions": "group as a whole, 28 weeks, 300-400 mg/d, p<0.01"}, "[6]": {"conditions": "non-steroid-dependent asthmatics, p<0.05"}, "[7]": {"conditions": "steroid-dependent patients, not significant"}, "[8]": {"conditions": "steroid-dependent asthmatics, at least six months on therapy"}}}
{"smiles": "CCN(CCO)CCCC(C)Nc1ccnc2cc(Cl)ccc12", "note": "(stereo not shown) [HCQ, Hydroxychloroquine]", "values": [{"measurement": "effect on plasma theophylline levels", "setting": "[1]; drug interaction", "value": "no significant effect"}, {"measurement": "mean IgE level", "setting": "[1]; during treatment, p<0.05", "value": 339, "unit": "IU/ml"}, {"measurement": "mean FEV-1 increase", "setting": "[1]; [5]", "value": 17, "unit": "%"}, {"measurement": "mean FVC increase", "setting": "[1]; [5]", "value": 10, "unit": "%"}, {"measurement": "mean of each of six symptom scores", "setting": "[1]; group as a whole, p<0.05", "value": "declined significantly"}, {"measurement": "mean FEV-1 rise", "setting": "[1]; [6]", "value": 32, "unit": "%"}, {"measurement": "mean FVC rise", "setting": "[1]; [6]", "value": 19, "unit": "%"}, {"measurement": "mean symptom scores for four of five symptoms", "setting": "[1]; [6]", "value": "declined from baseline"}, {"measurement": "mean IgE level", "setting": "[1]; pretreatment", "value": 645, "unit": "IU/ml"}, {"measurement": "cumulative mean monthly steroid dosage required", "setting": "[1]; steroid-dependent patients, at entry", "value": 383, "unit": "mg"}, {"measurement": "cumulative mean monthly steroid dosage required", "setting": "[1]; steroid-dependent patients, at week 28", "value": 191, "unit": "mg"}, {"measurement": "decrease of cumulative mean monthly steroid dosage required", "setting": "[1]; steroid-dependent patients, entry to week 28, p<0.01", "value": 50, "unit": "%"}, {"measurement": "mean FEV-1 increase", "setting": "[1]; [7]", "value": 9, "unit": "%"}, {"measurement": "mean FVC increase", "setting": "[1]; [7]", "value": 7, "unit": "%"}, {"measurement": "symptom scores", "setting": "[1]; steroid-dependent patients, p<0.05", "value": "two of five symptom scores improved"}, {"measurement": "forced vital capacity and FEV-1", "setting": "[2]; 11 non-steroid-dependent asthmatics, significant from month six", "value": "very significant improvements"}, {"measurement": "rescue-interventions (normalized rates)", "setting": "[2]; NSDA group, until after three months therapy", "value": "no significant fall"}, {"measurement": "decrease in serum IgE levels", "setting": "[2]; patients in general, pre- vs post-treatment", "value": "~40", "unit": "%"}, {"measurement": "change in serum IgE levels", "setting": "[2]; patients with normal IgE levels, not significant", "value": 19, "unit": "%"}, {"measurement": "onset of significant effects", "setting": "[2]; severe asthmatics", "value": "only after three months"}, {"measurement": "reduction of average daily oral steroid dosage", "setting": "[2]; steroid-dependent asthmatics", "value": 60, "unit": "%"}, {"measurement": "FEV-1 increase", "setting": "[2]; [8]", "value": "about 10%"}, {"measurement": "FVC increase", "setting": "[2]; [8]", "value": "about 10%"}, {"measurement": "tolerability", "setting": "symptomatic asthmatics; 30 weeks", "value": "well tolerated without notable side-effects"}, {"measurement": "patients requiring oral steroid rescue interventions", "setting": "symptomatic asthmatics; HCQ group n=8 (4 on placebo)", "value": 2, "unit": "patients"}, {"measurement": "mean IgE level", "setting": "symptomatic asthmatics; HCQ group, baseline", "value": 240, "unit": "lU/ml"}, {"measurement": "mean IgE level", "setting": "symptomatic asthmatics; HCQ group, on therapy", "value": 125, "unit": "lU/ml"}, {"measurement": "evening peak flows rise", "setting": "symptomatic asthmatics; HCQ group, p<0.04", "value": 14.2, "unit": "%"}, {"measurement": "mean IgE level decline", "setting": "symptomatic asthmatics; HCQ group, p<0.05", "value": 48, "unit": "%"}, {"measurement": "BD usage fall", "setting": "symptomatic asthmatics; bronchodilator usage, HCQ group, p<0.03", "value": 18.6, "unit": "%"}, {"measurement": "mean FEV-1 increase", "setting": "symptomatic asthmatics; last 2 visits on therapy vs baseline, HCQ group n=8, p<0.05", "value": 10.8, "unit": "%"}, {"measurement": "effect on cholesterol", "setting": "symptomatic asthmatics; sparing of HDL levels", "value": "mild hypocholesterolemic effects"}, {"measurement": "histamine release", "setting": "human lung", "value": "inhibits"}, {"measurement": "leukotriene release", "setting": "human lung", "value": "inhibits"}, {"measurement": "release of IL-1 and IL-6", "setting": "[3]; T-cells and monocytes in vitro", "value": "inhibit"}, {"measurement": "release of tumor necrosis factor", "setting": "[3]; human macrophages in vitro", "value": "inhibit"}, {"measurement": "neutrophil superoxide production and release", "setting": "[4]", "value": "markedly reduce"}, {"measurement": "platelet aggregation", "setting": "platelet aggregation", "value": "inhibit"}, {"measurement": "replication of HIV virus", "setting": "HIV virus", "value": "actively inhibits"}, {"measurement": "infection by influenza and adenovirus", "setting": "influenza and adenovirus", "value": "inhibits"}]}
